Test results taken from patent US20240166652A1, “MODULATORS OF THE INTEGRATED STRESS PATHWAY” (Calico Life Sciences LLC, priority 2017, published 2024).

Each molecule was assayed on ATF4 luciferase reporter in HEK293T cells (assay: ATF4-Luc assay (ATF4 luciferase reporter, tunicamycin-treated HEK293T cells)). Conditions: Homo sapiens, HEK-293T; HEK293T cells carrying the ATF4 luciferase reporter, 1 μg/mL tunicamycin, 7 hours.
Assay type: cell-based, human

`O=C(COc1ccc(F)cc1)NC12CCC(NC(=O)COc3ccc(F)c(F)c3)(CC1)[C@@H](O)C2` [Compound 617, 2-(3,4-difluorophenoxy)-N-{(2S)-4-[2-(4-fluorophenoxy)acetamido]-2-hydroxybicyclo[2.2.2]octan-1-yl}acetamide] and `O=C(COc1ccc(F)c(F)c1)NC12CCC(NC(=O)COc3ccc(F)c(C(F)(F)F)c3)(CC1)[C@@H](O)C2` [Compound 829, 2-(3,4-difluorophenoxy)-N-[(3S)-4-{2-[4-fluoro-3-(trifluoromethyl)phenoxy]acetamido}-3-hydroxybicyclo[2.2.2]octan-1-yl]acetamide] cannot be ordered by EC50: less than 10 nM for the first, less than 10 nM for the second.

`O=C(COc1ccc(Cl)c(F)c1)NC12CCC(NCCOc3ccc(Cl)cc3)(CC1)C(O)C2` (stereo not shown) [Compound 336, 2-(4-chloro-3-fluorophenoxy)-N-(4-{[2-(4-chlorophenoxy)ethyl]amino}-3-hydroxybicyclo[2.2.2]octan-1-yl)acetamide] and `O=C(COc1ccc(Cl)cc1)NC12CCC(NC(=O)COc3ccc(Cl)c(Cl)c3)(CC1)[C@@H](O)C2` [Compound 582, 2-(4-chlorophenoxy)-N-{(3S)-4-[2-(3,4-dichlorophenoxy)acetamido]-3-hydroxybicyclo[2.2.2]octan-1-yl}acetamide] cannot be ordered by EC50: less than 10 nM for the first, less than 10 nM for the second.

First: Cn1nc(C(F)(F)F)cc1OCC(=O)NC12CC(NC(=O)COc3ccc(Cl)c(F)c3)(C1)C2 [Compound 369, 2-(4-chloro-3-fluorophenoxy)-N-[3-(2-{[1-methyl-3-(trifluoromethyl)-1H-pyrazol-5-yl]oxy}acetamido)bicyclo[1.1.1]pentan-1-yl]acetamide]
Second: O=C(COc1ccc(Cl)c(F)c1)NC12CC(NC(=O)COc3cnc(C(F)(F)F)cn3)(C1)C2 [Compound 107, 2-(4-chloro-3-fluorophenoxy)-N-[3-(2-{[5-(trifluoromethyl)pyrazin-2-yl]oxy}acetamido)bicyclo[1.1.1]pentan-1-yl]acetamide]
The EC50 of the first is higher: greater than 2000 nM for the first, 50 to 250 nM for the second.

First: O=C(COc1ccc(F)cc1)NC12CC(NC(=O)COc3ccc(Cl)c(F)c3)(C1)C2 [Compound 408, 2-(4-chloro-3-fluorophenoxy)-N-{3-[2-(4-fluorophenoxy)acetamido]bicyclo[1.1.1]pentan-1-yl}acetamide]
Second: O=C(COc1ccc(Cl)c(F)c1)NC12CC(NC(=O)COc3cnc4cc[nH]c4c3)(C1)C2 [Compound 254, 2-(4-chloro-3-fluorophenoxy)-N-(3-{2-[(1H-pyrrolo[3,2-b]pyridin-6-yl)oxy]acetamido}bicyclo[1.1.1]pentan-1-yl)acetamide]
The EC50 of the first is lower: less than 10 nM for the first, 250 to 500 nM for the second.

`O=C(COc1ccc(Cl)c(F)c1)NC12CCC(NC(=O)COc3ccc(Cl)c(F)c3)(CC1)C(NCCO)C2` (stereo not shown) [Compound 707, N,N′-{2-[(2-hydroxyethyl)amino]bicyclo[2.2.2]octane-1,4-diyl}bis[2-(4-chloro-3-fluorophenoxy)acetamide]] and `Cc1ccc(OCC(=O)NC23CCC(NC(=O)COc4ccc(Cl)c(F)c4)(CC2)C[C@@H]3O)cc1C` [Compound 510, 2-(4-chloro-3-fluorophenoxy)-N-{(3S)-4-[2-(3,4-dimethylphenoxy)acetamido]-3-hydroxybicyclo[2.2.2]octan-1-yl}acetamide] cannot be ordered by EC50: less than 10 nM for the first, less than 10 nM for the second.

First: CN1C(=O)C2(NC(=O)COc3ccc(Cl)c(Cl)c3)CCC1(NC(=O)COc1ccc(Cl)c(Cl)c1)CC2 [Compound 599, N,N-(2-methyl-3-oxo-2-azabicyclo[2.2.2]octane-1,4-diyl)bis[2-(3,4-dicholorophenoxy)acetamide]]
Second: O=C(COc1ccc(Cl)c(Cl)c1)NC12CCC(NC(=O)COc3ccc(Cl)c(Cl)c3)(CC1)[C@@H](O)C2 [Compound 538, N,N′-[(2S)-2-hydroxybicyclo[2.2.2]octane-1,4-diyl]bis[2-(3,4-dichlorophenoxy)acetamide]]
The EC50 of the first is higher: 10 to 50 nM for the first, less than 10 nM for the second.

First: O=C(COc1ccc(C2CC2)nc1)NC12CC(NC(=O)COc3ccc4c(c3)OC(F)(F)O4)(C1)C2 [Compound 268, 2-[(6-cyclopropylpyridin-3-yl)oxy]-N-(3-{2-[(2,2-difluoro-2H-1,3-benzodioxol-5-yl)oxy]acetamido}bicyclo[1.1.1]pentan-1-yl)acetamide]
Second: O=C(COc1ccc(Cl)cc1)NC12CC(NC(=O)COc3ccc4c(c3)OC(F)(F)O4)(C1)C2 [Compound 580, 2-(4-chlorophenoxy)-N-(3-{2-[(2,2-difluoro-2H-1,3-benzodioxol-5-yl)oxy]acetamido}bicyclo[1.1.1]pentan-1-yl)acetamide]
The EC50 of the first is higher: 10 to 50 nM for the first, less than 10 nM for the second. The second is the more potent here.

Compared with `O=C(COc1ccc(Cl)c(F)c1)NC12CCC(NC(=O)NCc3ccc(Cl)c(F)c3)(CC1)C[C@@H]2O` [Compound 576, 2-(4-chloro-3-fluorophenoxy)-N-[(2S)-4-({[(4-chloro-3-fluorophenyl)methyl]carbamoyl}amino)-2-hydroxybicyclo[2.2.2]octan-1-yl]acetamide], `O=C(COc1ccc(Cl)c(F)c1)NC12CCC(NC(=O)COc3cc(F)c4cn[nH]c4c3)(CC1)[C@@H](O)C2` [Compound 738, 2-(4-chloro-3-fluorophenoxy)-N-[(3S)-4-{2-[(4-fluoro-1H-indazol-6-yl)oxy]acetamido}-3-hydroxybicyclo[2.2.2]octan-1-yl]acetamide] is lower in EC50: 10 to 50 nM for the first, less than 10 nM for the second.

Compared with `O=C(COc1ccc(OC(F)(F)F)c(F)c1)NC12CCC(NC(=O)COc3ccc(OC(F)(F)F)cc3)(CC1)[C@@H](O)C2` [Compound 764, 2-[3-fluoro-4-(trifluoromethoxy)phenoxy]-N-[(3S)-3-hydroxy-4-{2-[4-(trifluoromethoxy)phenoxy]acetamido}bicyclo[2.2.2]octan-1-yl]acetamide], `O=C(COc1cnc(OCC(F)(F)F)nc1)NC12CCC(NC(=O)COc3ccc(Cl)c(F)c3)(CC1)[C@@H](O)C2` [Compound 629, 2-(4-chloro-3-fluorophenoxy)-N-[(2S)-2-hydroxy-4-(2-{[2-(2,2,2-trifluoroethoxy)pyrimidin-5-yl]oxy}acetamido)bicyclo[2.2.2]octan-1-yl]acetamide] is higher in EC50: 10 to 50 nM for the first, 50 to 250 nM for the second.

First: O=C(COc1ccc(Cl)c(F)c1)NC12CC(NC(=O)COc3ccnn3C3CC3)(C1)C2 [Compound 371, 2-(4-chloro-3-fluorophenoxy)-N-(3-{2-[(1-cyclopropyl-1H-pyrazol-5-yl)oxy]acetamido}bicyclo[1.1.1]pentan-1-yl)acetamide]
Second: O=C(COc1ccc(Cl)c(F)c1)NC12CC(NC(=O)COc3ccnn(CC(F)(F)F)c3=O)(C1)C2 [Compound 309, 2-(4-chloro-3-fluorophenoxy)-N-[3-(2-{[3-oxo-2-(2,2,2-trifluoroethyl)-2,3-dihydropyridazin-4-yl]oxy}acetamido)bicyclo[1.1.1]pentan-1-yl]acetamide]
The EC50 of the first is higher: 250 to 500 nM for the first, 50 to 250 nM for the second.

First: Cc1ccc(OCC(=O)NC23CCC(NC(=O)COc4ccc(C)c(C)c4)(CC2)[C@@H](O)C3)cc1C [Compound 443, N,N′-[(2S)-2-hydroxybicyclo[2.2.2]octane-1,4-diyl]bis[2-(3,4-dimethylphenoxy)acetamide]]
Second: O=C(COc1ccccn1)NC12CCC(NC(=O)COc3ccc(Cl)c(F)c3)(CC1)[C@@H](O)C2 [Compound 663, 2-(4-chloro-3-fluorophenoxy)-N-[(2S)-2-hydroxy-4-{2-[(pyridin-2-yl)oxy]acetamido}bicyclo[2.2.2]octan-1-yl]acetamide]
The EC50 of the first is lower: less than 10 nM for the first, 10 to 50 nM for the second.

First: O=C(O)CN(CCCOc1ccc(Cl)c(F)c1)C12CC(NC(=O)COc3ccc(Cl)c(F)c3)(C1)C2 [Compound 687, ({3-[2-(4-chloro-3-fluorophenoxy)acetamido]bicyclo[1.1.1]pentan-1-yl}[3-(4-chloro-3-fluorophenoxy)propyl]amino)acetic Acid]
Second: Nc1ncc(OCC(=O)NC23CC(NC(=O)COc4ccc(Cl)c(F)c4)(C2)C3)cc1Cl [Compound 250, 2-[(6-amino-5-chloropyridin-3-yl)oxy]-N-{3-[2-(4-chloro-3-fluorophenoxy)acetamido]bicyclo[1.1.1]pentan-1-yl}acetamide]
The EC50 of the first is higher: 500 to 2000 nM for the first, 50 to 250 nM for the second. The second is the more potent here.

First: COC(=O)c1ncc(OCC(=O)NC23CCC(NC(=O)COc4ccc(Cl)c(F)c4)(CC2)[C@@H](O)C3)cn1 [Compound 622, methyl 5-[2-({(3S)-4-[2-(4-chloro-3-fluorophenoxy)acetamido]-3-hydroxybicyclo[2.2.2]octan-1-yl}amino)-2-oxoethoxy]pyrimidine-2-carboxylate]
Second: COc1cc(OCC(=O)NC23CC(NC(=O)COc4ccc(Cl)c(F)c4)(C2)C3)cnc1F [Compound 246, 2-(4-chloro-3-fluorophenoxy)-N-(3-{2-[(6-fluoro-5-methoxypyridin-3-yl)oxy]acetamido}bicyclo[1.1.1]pentan-1-yl)acetamide]
The EC50 of the first is higher: 500 to 2000 nM for the first, 10 to 50 nM for the second.

Compared with `Cc1cccc(CCOCC(=O)NC23CC(NC(=O)COc4ccc(Cl)c(F)c4)(C2)C3)c1` [Compound 136, 2-(4-chloro-3-fluorophenoxy)-N-(3-{2-[2-(3-methylphenyl)ethoxy]acetamido}-bicyclo[1.1.1]pentan-1-yl)acetamide], `Cc1cccc(CCOCC(=O)NC23CC(NC(=O)COc4ccc(Cl)c(Cl)c4)(C2)C3)c1` [Compound 152, 2-(3,4-dichlorophenoxy)-N-(3-{2-[2-(3-methylphenyl)ethoxy]-acetamido}bicyclo[1.1.1]pentan-1-yl)acetamide] is lower in EC50: 250 to 500 nM for the first, 50 to 250 nM for the second.

`Cc1cccc(OCC(=O)NC23CC(NC(=O)COc4ccc(Cl)cc4)(C2)C3)c1` [Compound 114, 2-(4-chlorophenoxy)-N-{3-[2-(3-methylphenoxy)acetamido]bicyclo[1.1.1]-pentan-1-yl}acetamide] and `O=C(COc1ccc(Cl)cc1)NC12CCC(NC(=O)COc3ccc(F)c(F)c3)(CC1)CC2` [Compound 740, 2-(4-chlorophenoxy)-N-{4-[2-(3,4-difluorophenoxy)acetamido]bicyclo[2.2.2]octan-1-yl}acetamide] fall in the same range of EC50: 10 to 50 nM for the first, 10 to 50 nM for the second.

For `O=C(COc1ccc(C(F)(F)F)nc1)NC12CCC(NC(=O)COc3ccc(Cl)c(Cl)c3)(C1)C2` [Compound 196, 2-(3,4-dichlorophenoxy)-N-[4-(2-{[6-(trifluoromethyl)pyridin-3-yl]oxy}acetamido)bicyclo[2.1.1]hexan-1-yl]acetamide], the EC50 was 10 to 50 nM.
